Laboratory results from US10112941B2, “Tricyclic compounds as anticancer agents” (BRISTOL-MYERS SQUIBB COMPANY, priority 2013, dated 2018).

Tests used:
BRD4 = BRD4 (Homo sapiens, UniProt O60885); test: Time Resolved Fluorescence Resonance Energy Transfer (TR-FRET) binding assay, BRD4; details: one of the FRET assays described; read-out: FRET BRD4 IC50
[1] = system: JJN3R multiple myeloma cell line; test: Human tumor xenograft model in mice, JJN3R; format: in vivo; details: QD × 7
Text: All rodents were obtained from Jackson Laboratory. (Bar Harbor, Me.), and maintained in an ammonia-free environment in a defined and pathogen-free colony. All mice were quarantined approximately 1 week prior to their use for tumor propagation and drug efficacy testing. Mice were fed food and water ad libitum. The animal care program of Bristol-Myers Squibb Pharmaceutical Research Institute is fully accredited by the American Association for Accreditation of Laboratory Animal Care (AAALAC). All experiments were performed in accordance with Bristol-Myers Squibb (BMS) animal test methods and guidelines.
Tumor xenografts were grown and maintained subcutaneously (SC) in NSG (NOD scid IL2 receptor gamma chain knockout) mice (Jackson Lab). Tumors were propagated as subcutaneous transplants using tumor fragments obtained from donor mice.
The required numbers of animals needed to detect a meaningful response were pooled at the start of the experiment and each was given bilateral subcutaneous implants of two tumor fragments (˜20 mg) with a 13-gauge trocar. Tumors were allowed to grow to the pre-determined size window (tumors outside the range were excluded) and animals were evenly distributed to various treatment and control groups. There were typically 6-8 mice per treatment and control groups, consisting of 10-12 tumors. Treatment of each animal was based on individual body weight. Treated animals were checked daily for treatment related toxicity/mortality. Each group of animals was weighed before the initiation of treatment (Wt1) and then again following the last treatment dose (Wt2). The difference in body weight (Wt2−Wt1) provides a measure of treatment-related toxicity.
Tumor response was determined by measurement of tumors with a caliper twice a week, until the tumors reached a predetermined “target” size of 0.5 gm or 1 gm depending on the tumor type. Tumor weights (mg) were estimated from the formula: Tumor weight=(length×width^2)÷2
Tumor response criteria are expressed in terms of tumor growth inhibition (% TGI). Tumor growth delay is defined as the difference in time (days) required for the treated tumors (T) to reach a predetermined target size compared to those of the control group (C). For this purpose, the tumor weight of a group is expressed as medium tumor weight (MTW).
[formula] where, • Ct=Median control tumor size at end of treatment • C0=Median control tumor size at treatment initiation • Tt=Median tumor size of treated group at end of treatment • T0=Median tumor size of treated group at treatment initiation
Tumor response was also expressed in terms of tumor growth delay and expressed as log cell kill (LCK value), defined as the difference in time (days) required for the treated tumors (T) to reach a predetermined target size compared to those of the control group (C).
Whenever possible, antitumor activity was determined at a range of dose levels up to the maximum tolerated dose (MTD) which is defined as the dose level immediately […] which excessive toxicity (i.e. more than one death) occurred. When death occurred, the day of death was recorded. Treated mice dying prior to having their tumors reach target size were considered to have died from drug toxicity. No control mice died bearing tumors less than target size. Treatment groups with more than one death caused by drug toxicity were considered to have had excessively toxic treatments and their data were not included in the evaluation of a compound's antitumor efficacy.
For administration of BET inhibitors to rodents, compounds were dissolved in […]/10% TPGS/10% Ethanol. BET inhibitors were typically administered orally on a schedule of QD×7 or QD×10 (5 day-on-2 day-off), although other schedules had also been evaluated and shown to be efficacious

`Cc1nnn(C)c1-c1cnc2c3ccc(C(C)(O)C4CC4)c(F)c3n([C@H](c3ccccc3F)C3CCOCC3)c2c1` (single isomer, unassigned) [Example 436] showed an IC50 (BRD4) of less than 5 nM, an LCK ([1]; 1 mg/kg) of 0.6 and an LCK ([1]; 4 mg/kg) of 0.9.

`[2H]C([2H])([2H])c1nnn(C)c1-c1cnc2c3ccc(C(C)(C)O)cc3n(C(c3ccccc3)C3CCC(F)(F)CC3)c2c1` (centres unmarked) [Example 203, 2-{5-[(4,4-Difluorocyclohexyl)(phenyl)methyl]-3-[4-(^2H3)methyl-1-methyl-1H-1,2,3-triazol-5-yl]-5H-pyrido[3,2-b]indol-7-yl}propan-2-ol] was tested, and the IC50 (BRD4) was less than 5 nM, the “% TGI” value ([1]; 1 mg/kg) was 93% and the LCK ([1]; 1 mg/kg) was 0.7. For the same compound, the “% TGI” value ([1]; 4 mg/kg) was 105% and the LCK ([1]; 4 mg/kg) was greater than 1.4.

For `[2H]C([2H])([2H])c1nnn(C)c1-c1cnc2c3ccc(S(C)(=O)=O)cc3n([C@H](c3ccccc3)C3CCOCC3)c2c1` [Example 263, 5-{7-Methanesulfonyl-5-[(S)-oxan-4-yl(phenyl)methyl]-5H-pyrido[3,2-b]indol-3-yl}-4-(^2H3)methyl-1-methyl-1H-1,2,3-triazole], the IC50 (BRD4) was less than 5 nM, the LCK ([1]; 1 mg/kg) was 0.2 and the LCK ([1]; 4 mg/kg) was 0.3.

For `[2H]C([2H])([2H])c1nnn(C)c1-c1cnc2c3cc(F)c(C(C)(C)O)cc3n([C@H](c3ccccc3F)C3CCOCC3)c2c1` [Example 276, 2-{8-Fluoro-5-[(S)-(2-fluorophenyl)(oxan-4-yl)methyl]-3-[4-(^2H3)methyl-1-methyl-1H-1,2,3-triazol-5-yl]-5H-pyrido[3,2-b]indol-7-yl}propan-2-ol], the IC50 (BRD4) was less than 5 nM, the LCK ([1]; 1 mg/kg) was 0.3 and the LCK ([1]; 4 mg/kg) was 1.

For `[2H]C([2H])([2H])c1nnn(C)c1-c1cnc2c3ccc(C(C)(C)O)c(F)c3n([C@H](c3ccccc3)C3CCOCC3)c2c1` [Example 278, 2-{6-Fluoro-3-[4-(^2H3)methyl-1-methyl-1H-1,2,3-triazol-5-yl]-5-[(S)-oxan-4-yl(phenyl)methyl]-5H-pyrido[3,2-b]indol-7-yl}propan-2-ol], the IC50 (BRD4) was less than 5 nM, the LCK ([1]; 1 mg/kg) was 1 and the LCK ([1]; 4 mg/kg) was greater than 1.4.

With `[2H]C([2H])([2H])c1nnn(C)c1-c1cnc2c3ccc([C@@](C)(O)C4CC4)c(F)c3n([C@H](c3ccccc3)C3CCOCC3)c2c1` [Example 433, (1S)-1-cyclopropyl-1-{6-fluoro-3-[4-(^2H3)methyl-1-methyl-1H-1,2,3-triazol-5-yl]-5-[(S)-oxan-4-yl(phenyl)methyl]-5H-pyrido[3,2-b]indol-7-yl}ethan-1-ol] the “% TGI” value ([1]; 1 mg/kg) was 54% and the LCK ([1]; 1 mg/kg) was 0.5.

In the case of `Cc1nnn(C)c1-c1cnc2c3ccc([C@](C)(O)C4CC4)c(F)c3n([C@H](c3ccccc3)C3CCOCC3)c2c1` [Example 434, (1R)-1-cyclopropyl-1-{6-fluoro-3-[4-(^2H3)methyl-1-methyl-1H-1,2,3-triazol-5-yl]-5-[(S)-oxan-4-yl(phenyl)methyl]-5H-pyrido[3,2-b]indol-7-yl}ethan-1-ol], the IC50 (BRD4) is reported as less than 5 nM.

For `[2H]C([2H])([2H])c1nnn(C)c1-c1cnc2c3ccc([C@](C)(O)C4CC4)c(F)c3n([C@H](c3ccccc3)C3CCOCC3)c2c1` [Example 434, (1R)-1-cyclopropyl-1-{6-fluoro-3-[4-(^2H3)methyl-1-methyl-1H-1,2,3-triazol-5-yl]-5-[(S)-oxan-4-yl(phenyl)methyl]-5H-pyrido[3,2-b]indol-7-yl}ethan-1-ol], the “% TGI” value ([1]; 1 mg/kg) was 82% and the LCK ([1]; 1 mg/kg) was 0.5.

`[2H]C([2H])([2H])c1nnn(C)c1-c1cnc2c3ccc(C(C)(O)C4CC4)c(F)c3n([C@H](c3ccccc3F)C3CCOCC3)c2c1` (stereo partly drawn) [Example 437, 1-Cyclopropyl-1-{6-fluoro-5-[(S)-(2-fluorophenyl)(oxan-4-yl)methyl]-3-[4-(^2H3)methyl-1-methyl-1H-1,2,3-triazol-5-yl]-5H-pyrido[3,2-b]indol-7-yl}ethan-1-ol] gave an IC50 (BRD4) of less than 5 nM.

In the case of `COc1nnn(C)c1-c1cnc2c3ccc(C(C)(O)C4CC4)c(F)c3n([C@H](c3ccccc3)C3CCOCC3)c2c1` (stereo partly drawn) [Example 439, 1-Cyclopropyl-1-[6-fluoro-3-(4-methoxy-1-methyl-1H-1,2,3-triazol-5-yl)-5-[(S)-oxan-4-yl(phenyl)methyl]-5H-pyrido[3,2-b]indol-7-yl]ethan-1-ol], the IC50 (BRD4) is reported as less than 5 nM.

In the case of `[2H]C([2H])([2H])c1nnn(C)c1-c1cnc2c3cc(F)c(C(C)(O)C4CC4)cc3n([C@H](c3ccccc3)C3CCOCC3)c2c1` (stereo partly drawn) [Example 445, 1-Cyclopropyl-1-{8-fluoro-3-[4-(^2H3)methyl-1-methyl-1H-1,2,3-triazol-5-yl]-5-[(S)-oxan-4-yl(phenyl)methyl]-5H-pyrido[3,2-b]indol-7-yl}ethan-1-ol], the IC50 (BRD4) is reported as less than 5 nM.

`[2H]C([2H])([2H])c1nnn(C)c1-c1cnc2c3cc(F)c(C(C)(O)C4CC4)cc3n([C@H](c3ccccc3)C3CCOCC3)c2c1` (stereo partly drawn) [Example 446, 1-Cyclopropyl-1-{8-fluoro-3-[4-(^2H3)methyl-1-methyl-1H-1,2,3-triazol-5-yl]-5-[(S)-oxan-4-yl(phenyl)methyl]-5H-pyrido[3,2-b]indol-7-yl}ethan-1-ol] was tested, and the IC50 (BRD4) was less than 5 nM.

`[2H]C([2H])([2H])c1nnn(C)c1-c1cnc2c3cc(F)c(C(C)(C)O)c(F)c3n([C@H](c3ccccc3)C3CCOCC3)c2c1` [Example 452, 2-{6,8-Difluoro-3-[4-(^2H3)methyl-1-methyl-1H-1,2,3-triazol-5-yl]-5-[(S)-oxan-4-yl(phenyl)methyl]-5H-pyrido[3,2-b]indol-7-yl}propan-2-ol] showed an IC50 (BRD4) of less than 5 nM.

In the case of `Cn1nncc1-c1cnc2c3ccc(S(C)(=O)=O)cc3n([C@H](c3ccccc3)C3CCOCC3)c2c1` [Example 453, 5-{7-Methanesulfonyl-5-[(S)-oxan-4-yl(phenyl)methyl]-5H-pyrido[3,2-b]indol-3-yl}-1-methyl-1H-1,2,3-triazole], the IC50 (BRD4) is reported as less than 5 nM.

With `Cc1ncn(C)c1-c1cnc2c3ccc(S(C)(=O)=O)cc3n([C@H](c3ccccc3)C3CCOCC3)c2c1` [Example 454, 5-{7-Methanesulfonyl-5-[(S)-oxan-4-yl(phenyl)methyl]-5H-pyrido[3,2-b]indol-3-yl}-1,4-dimethyl-1H-imidazole] the IC50 (BRD4) was less than 25 nM.

In the case of `Cc1n[nH]cc1-c1cnc2c3ccc(S(C)(=O)=O)cc3n([C@H](c3ccccc3)C3CCOCC3)c2c1` [Example 455, 4-{7-Methanesulfonyl-5-[(S)-oxan-4-yl(phenyl)methyl]-5H-pyrido[3,2-b]indol-3-yl}-3-methyl-1H-pyrazole], the IC50 (BRD4) is reported as less than 25 nM.

`Cc1nnn(C)c1-c1cnc2c3ccc(C(N)=O)c(F)c3n([C@H](c3ccccc3)C3CCOCC3)c2c1` [Example 460, 3-(Dimethyl-1H-1,2,3-triazol-5-yl)-6-fluoro-5-[(S)-oxan-4-yl(phenyl)methyl]-5H-pyrido[3,2-b]indole-7-carboxamide] was tested, and the IC50 (BRD4) was less than 5 nM.

In the case of `Cc1nnn(C)c1-c1cnc2c3ccc(C(C)(C)N)c(F)c3n([C@H](c3ccccc3)C3CCOCC3)c2c1` [Example 461, 2-[3-(Dimethyl-1H-1,2,3-triazol-5-yl)-6-fluoro-5-[(S)-oxan-4-yl(phenyl)methyl]-5H-pyrido[3,2-b]indol-7-yl]propan-2-amine], the IC50 (BRD4) is reported as less than 5 nM.

Work on `CC(=O)NC(C)(C)c1ccc2c3ncc(-c4c(C)nnn4C)cc3n([C@H](c3ccccc3)C3CCOCC3)c2c1F` [Example 462, N-{2-[3-(Dimethyl-1H-1,2,3-triazol-5-yl)-6-fluoro-5-[(S)-oxan-4-yl(phenyl)methyl]-5H-pyrido[3,2-b]indol-7-yl]propan-2-yl}acetamide] yielded an IC50 (BRD4) of less than 5 nM.

With `Cc1nnn(C)c1-c1cnc2c3ccc(C(C)(C)NS(C)(=O)=O)c(F)c3n([C@H](c3ccccc3)C3CCOCC3)c2c1` [Example 463, N-{2-[3-(Dimethyl-1H-1,2,3-triazol-5-yl)-6-fluoro-5-[(S)-oxan-4-yl(phenyl)methyl]-5H-pyrido[3,2-b]indol-7-yl]propan-2-yl}methanesulfonamide] the IC50 (BRD4) was less than 5 nM.

For `COC(=O)NC(C)(C)c1ccc2c3ncc(-c4c(C)nnn4C)cc3n([C@H](c3ccccc3)C3CCOCC3)c2c1F` [Example 464, Methyl N-{2-[3-(dimethyl-1H-1,2,3-triazol-5-yl)-6-fluoro-5-[(S)-oxan-4-yl(phenyl)methyl]-5H-pyrido[3,2-b]indol-7-yl]propan-2-yl}carbamate], the IC50 (BRD4) was less than 5 nM.
